Test results published in patent US10604554B2, “Double-acylated GLP-1 derivatives” (Novo Nordisk A/S, priority 2012, dated 2020).
Where two headings read alike, the source gives them in different places. Numbered stars: 1 amine (or outer) side, 2 acyl side, 3 side chain; on linkers, the order of the positions; unused ones are H or OH. Square brackets hold non-standard residues; d marks the D form. Side chains are listed from the residue outwards. Peptide text beside a SMILES is read from it. * marks the point of attachment. C18 diacid = O=C(O)CCCCCCCCCCCCCCCCC(=O)*; γGlu = O=C(O)[C@H](CCC(=O)[*:2])N[*:1]; εLys = N[C@@H](CCCCN[*:1])C(=O)[*:2]; AEEA = NCCOCCOCC(=O)O; Aib = CC(C)(N)C(=O)O

Key:
human GLP-1 receptor [1] = biological target: T1, human GLP-1 receptor (Homo sapiens, UniProt P43220); test: In vitro potency (CRE luciferase; whole cells); format: cell-based; set-up: EC50/pM (ratio 1% HSA/0% HSA): unit not given here; details: for EC50: BHK cells; for EC50/pM (ratio 1% HSA/0% HSA): ratio of EC50 at 1% HSA to EC50 at 0% HSA
T1 construct: expressed in transfected cells; host or cells: BHK cells, clone FCW467-12A/KZ10-1 (parent line BHKTS13), further transfected with CRE luciferase
How it was run: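 Stably transfected BHK cells carrying human GLP-1R and a CRE–firefly luciferase reporter, 5×10^3 cells/well in assay medium, run with 0% or 1% HSA in assay buffer.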

human GLP-1 receptor [2] = biological target: T1, human GLP-1 receptor; test: GLP-1 receptor binding (SPA, displacement of 125I-GLP-1); details: for IC50 (high HSA): heading: Receptor binding affinity IC50
How it was run: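 Membranes from a stably transfected hamster cell line, 5-10 ug protein/sample, with WGA SPA beads and [125I]-GLP-1(7-36)NH2 at 0.06 nM final. Incubated 120 min at 30 °C with shaking, then counted.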

[3] = 0% HSA, read-out: In vitro potency (CRE luciferase) EC50 (0% HSA)
[4] = In vitro potency (CRE luciferase) EC50 (1% HSA), 1% HSA
[5] = 0.001% HSA (low albumin), read-out: Receptor binding affinity IC50 (low HSA)
[6] = Receptor binding affinity IC50 (high HSA), 2.0% HSA (high albumin)
[7] = Receptor binding affinity IC50 (low HSA), 0.001% HSA (low albumin)

T1 sequence (P43220 24-463): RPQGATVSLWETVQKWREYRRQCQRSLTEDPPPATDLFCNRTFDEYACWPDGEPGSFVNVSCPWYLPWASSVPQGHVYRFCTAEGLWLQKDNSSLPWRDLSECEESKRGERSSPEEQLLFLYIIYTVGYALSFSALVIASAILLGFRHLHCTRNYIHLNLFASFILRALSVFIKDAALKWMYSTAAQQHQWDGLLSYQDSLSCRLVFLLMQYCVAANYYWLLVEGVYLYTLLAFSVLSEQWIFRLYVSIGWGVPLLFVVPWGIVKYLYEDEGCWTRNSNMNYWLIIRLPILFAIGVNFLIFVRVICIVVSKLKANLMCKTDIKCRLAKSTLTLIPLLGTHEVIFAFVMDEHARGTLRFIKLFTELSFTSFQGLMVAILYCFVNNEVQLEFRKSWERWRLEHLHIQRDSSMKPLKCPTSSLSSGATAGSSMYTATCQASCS

SMILES | EC50 (human GLP-1 receptor [1]; [3]) [nM] | EC50 (human GLP-1 receptor [1]; [4]) [nM] | EC50/pM (ratio 1% HSA/0% HSA) (human GLP-1 receptor [1]) | IC50 (human GLP-1 receptor [2]; [5]) [nM] | IC50 (high HSA) (human GLP-1 receptor [2]; [6]) [nM] | IC50 (human GLP-1 receptor [2]; [6]) [nM] | IC50 (human GLP-1 receptor [2]; [7]) [nM] | EC50 (human GLP-1 receptor [1]; In vitro potency (CRE luciferase) EC50 (0% HSA), 0% HSA) [nM]
CC[C@H](C)[C@H](NC(=O)[C@H](Cc1ccccc1)NC(=O)[C@H](CCC(=O)O)NC(=O)[C@H](CCCCNC(=O)[C@@H](N)CCCCNC(=O)COCCOCCNC(=O)COCCOCCNC(=O)CC[C@H](NC(=O)CCCCCCCCCCCCCCCCC(=O)O)C(=O)O)NC(=O)[C@H](C)NC(=O)[C@H](C)NC(=O)[C@H](CCC(N)=O)NC(=O)[C@H](CCC(=O)O)NC(=O)[C@H](CCC(=O)O)NC(=O)[C@H](CC(C)C)NC(=O)[C@H](Cc1ccc(O)cc1)NC(=O)[C@H](CO)NC(=O)[C@H](CO)NC(=O)[C@@H](NC(=O)[C@H](CC(=O)O)NC(=O)[C@H](CO)NC(=O)[C@@H](NC(=O)[C@H](Cc1ccccc1)NC(=O)[C@@H](NC(=O)CNC(=O)[C@H](CCC(=O)O)NC(=O)C(C)(C)NC(=O)[C@@H](N)Cc1c[nH]cn1)[C@@H](C)O)[C@@H](C)O)C(C)C)C(=O)N[C@@H](C)C(=O)N[C@@H](Cc1c[nH]c2ccccc12)C(=O)N[C@@H](CC(C)C)C(=O)N[C@H](C(=O)N[C@@H](CCC(N)=O)C(=O)NCC(=O)N[C@@H](CCCNC(=N)N)C(=O)N[C@@H](CCCCNC(=O)[C@@H](N)CCCCNC(=O)COCCOCCNC(=O)COCCOCCNC(=O)CC[C@H](NC(=O)CCCCCCCCCCCCCCCCC(=O)O)C(=O)O)C(=O)O)C(C)C [Example 28, N^ε26-[(2S)-2-amino-6-[[2-[2-[2-[[2-[2-[2-[[(4S)-4-carboxy-4-(17-carboxyheptadecanoylamino)butanoyl]amino]ethoxy]ethoxy]acetyl]amino]ethoxy]ethoxy]acetyl]amino]hexanoyl], N^ε37-[(2S)-2-amino-6-[[2-[2-[2-[[2-[2-[2-[[(4S)-4-carboxy-4-(17-carboxyheptadecanoylamino)butanoyl]amino]ethoxy]ethoxy]acetyl]amino]ethoxy]ethoxy]acetyl]amino]hexanoyl]-[Aib^8,Glu^22,Gln^34, Lys^37]-GLP-1-(7-37)-peptide] (H-H[Aib]EGTFTSDVSSYLEEQAAK([εLys-AEEA-AEEA-γGlu-C18 diacid])EFIAWLVQGRK([εLys-AEEA-AEEA-γGlu-C18 diacid])-OH; N-terminus and C-terminus assumed) | 0.017 | 5.73 | 329 | 1.67 | ≥ 1000 |  |  | 
CC[C@H](C)[C@H](NC(=O)[C@H](Cc1ccccc1)NC(=O)[C@H](CCC(=O)O)NC(=O)[C@H](CCCCNC(=O)[C@@H](N)CCCCNC(=O)COCCOCCNC(=O)COCCOCCNC(=O)CC[C@H](NC(=O)CCCCCCCCCCCCC(=O)O)C(=O)O)NC(=O)[C@H](C)NC(=O)[C@H](C)NC(=O)[C@H](CCC(N)=O)NC(=O)CNC(=O)[C@H](CCC(=O)O)NC(=O)[C@H](CC(C)C)NC(=O)[C@H](Cc1ccc(O)cc1)NC(=O)[C@H](CO)NC(=O)[C@H](CO)NC(=O)[C@@H](NC(=O)[C@H](CC(=O)O)NC(=O)[C@H](CO)NC(=O)[C@@H](NC(=O)[C@H](Cc1ccccc1)NC(=O)[C@@H](NC(=O)CNC(=O)[C@H](CCC(=O)O)NC(=O)C(C)(C)NC(=O)[C@@H](N)Cc1c[nH]cn1)[C@@H](C)O)[C@@H](C)O)C(C)C)C(=O)N[C@@H](C)C(=O)N[C@@H](Cc1c[nH]c2ccccc12)C(=O)N[C@@H](CC(C)C)C(=O)N[C@H](C(=O)N[C@@H](CCCNC(=N)N)C(=O)NCC(=O)N[C@@H](CCCNC(=N)N)C(=O)N[C@@H](CCCCNC(=O)[C@@H](N)CCCCNC(=O)COCCOCCNC(=O)COCCOCCNC(=O)CC[C@H](NC(=O)CCCCCCCCCCCCC(=O)O)C(=O)O)C(=O)O)C(C)C [Example 19, N^ε26-[(2S)-2-amino-6-[[2-[2-[2-[[2-[2-[2-[[(4S)-4-carboxy-4-(13-carboxytridecanoylamino)butanoyl]amino]ethoxy]ethoxy]acetyl]amino]ethoxy]ethoxy]acetyl]amino]hexanoyl], N^ε37-[(2S)-2-amino-6-[[2-[2-[2-[[2-[2-[2-[[(4S)-4-carboxy-4-(13-carboxytridecanoylamino)butanoyl]amino]ethoxy]ethoxy]acetyl]amino]ethoxy]ethoxy]acetyl]amino]hexanoyl]-[Aib^8,Arg^34,Lys^37]-GLP-1-(7-37)-peptide] | 0.025 | 0.051 | 2.5 | 0.77 | 147 |  |  | 
CC[C@H](C)[C@H](NC(=O)[C@H](Cc1ccccc1)NC(=O)[C@H](CCC(=O)O)NC(=O)[C@H](CCCCNC(=O)[C@@H](N)CCCCNC(=O)[C@@H](N)CCCCNC(=O)CC[C@H](NC(=O)CCCCCCCCCCCOc1ccc(C(=O)O)cc1)C(=O)O)NC(=O)[C@H](C)NC(=O)[C@H](C)NC(=O)[C@H](CCC(N)=O)NC(=O)CNC(=O)[C@H](CCC(=O)O)NC(=O)[C@H](CC(C)C)NC(=O)[C@H](Cc1ccc(O)cc1)NC(=O)[C@H](CO)NC(=O)[C@H](CO)NC(=O)[C@@H](NC(=O)[C@H](CC(=O)O)NC(=O)[C@H](CO)NC(=O)[C@@H](NC(=O)[C@H](Cc1ccccc1)NC(=O)[C@@H](NC(=O)CNC(=O)[C@H](CCC(=O)O)NC(=O)C(C)(C)NC(=O)[C@@H](N)Cc1c[nH]cn1)[C@@H](C)O)[C@@H](C)O)C(C)C)C(=O)N[C@@H](C)C(=O)N[C@@H](Cc1c[nH]c2ccccc12)C(=O)N[C@@H](CC(C)C)C(=O)N[C@H](C(=O)N[C@@H](CCCNC(=N)N)C(=O)NCC(=O)N[C@@H](CCCNC(=N)N)C(=O)N[C@@H](CCCCNC(=O)[C@@H](N)CCCCNC(=O)[C@@H](N)CCCCNC(=O)CC[C@H](NC(=O)CCCCCCCCCCCOc1ccc(C(=O)O)cc1)C(=O)O)C(=O)O)C(C)C [Example 7, N^ε26-[(2S)-2-amino-6-[[(2S)-2-amino-6-[[(4S)-4-carboxy-4-[12-(4-carboxyphenoxy)dodecanoylamino]butanoyl]amino]hexanoyl]amino]hexanoyl], N^ε37-[(2S)-2-amino-6-[[(2S)-2-amino-6-[[(4S)-4-carboxy-4-[12-(4-carboxyphenoxy)dodecanoylamino]butanoyl]amino]hexanoyl]amino]hexanoyl]-[Aib^8,Arg^34,Lys^37]-GLP-1-(7-37)-peptide] |  | 0.096 |  |  |  | 106 | 0.13 | 
CC[C@H](C)[C@H](NC(=O)[C@H](Cc1ccccc1)NC(=O)[C@H](CCC(=O)O)NC(=O)[C@H](CCCCNC(=O)[C@@H](N)CCCCNC(=O)COCCOCCNC(=O)COCCOCCNC(=O)CC[C@H](NC(=O)CCCCCCCCCOc1ccc(C(=O)O)cc1)C(=O)O)NC(=O)[C@H](C)NC(=O)[C@H](C)NC(=O)[C@H](CCC(N)=O)NC(=O)CNC(=O)[C@H](CCC(=O)O)NC(=O)[C@H](CC(C)C)NC(=O)[C@H](Cc1ccc(O)cc1)NC(=O)[C@H](CO)NC(=O)[C@H](CO)NC(=O)[C@@H](NC(=O)[C@H](CC(=O)O)NC(=O)[C@H](CO)NC(=O)[C@@H](NC(=O)[C@H](Cc1ccccc1)NC(=O)[C@@H](NC(=O)CNC(=O)[C@H](CCC(=O)O)NC(=O)C(C)(C)NC(=O)[C@@H](N)Cc1c[nH]cn1)[C@@H](C)O)[C@@H](C)O)C(C)C)C(=O)N[C@@H](C)C(=O)N[C@@H](Cc1c[nH]c2ccccc12)C(=O)N[C@@H](CC(C)C)C(=O)N[C@H](C(=O)N[C@@H](CCCNC(=N)N)C(=O)NCC(=O)N[C@@H](CCCNC(=N)N)C(=O)N[C@@H](CCCCNC(=O)[C@@H](N)CCCCNC(=O)COCCOCCNC(=O)COCCOCCNC(=O)CC[C@H](NC(=O)CCCCCCCCCOc1ccc(C(=O)O)cc1)C(=O)O)C(=O)O)C(C)C [Example 5] |  | 0.033 |  |  |  | 64 | 1.03 | 0.0054
CC[C@H](C)[C@H](NC(=O)[C@H](Cc1ccccc1)NC(=O)[C@H](CCC(=O)O)NC(=O)[C@H](CCCCNC(=O)[C@@H](N)CCCCNC(=O)[C@@H](N)CCCCNC(=O)CC[C@H](NC(=O)CCCCCCCNC(=O)CCCCCCCCCOc1ccc(C(=O)O)cc1)C(=O)O)NC(=O)[C@H](C)NC(=O)[C@H](C)NC(=O)[C@H](CCC(N)=O)NC(=O)CNC(=O)[C@H](CCC(=O)O)NC(=O)[C@H](CC(C)C)NC(=O)[C@H](Cc1ccc(O)cc1)NC(=O)[C@H](CO)NC(=O)[C@H](CO)NC(=O)[C@@H](NC(=O)[C@H](CC(=O)O)NC(=O)[C@H](CO)NC(=O)[C@@H](NC(=O)[C@H](Cc1ccccc1)NC(=O)[C@@H](NC(=O)CNC(=O)[C@H](CCC(=O)O)NC(=O)C(C)(C)NC(=O)[C@@H](N)Cc1c[nH]cn1)[C@@H](C)O)[C@@H](C)O)C(C)C)C(=O)N[C@@H](C)C(=O)N[C@@H](Cc1c[nH]c2ccccc12)C(=O)N[C@@H](CC(C)C)C(=O)N[C@H](C(=O)N[C@@H](CCCNC(=N)N)C(=O)NCC(=O)N[C@@H](CCCNC(=N)N)C(=O)N[C@@H](CCCCNC(=O)[C@@H](N)CCCCNC(=O)[C@@H](N)CCCCNC(=O)CC[C@H](NC(=O)CCCCCCCNC(=O)CCCCCCCCCOc1ccc(C(=O)O)cc1)C(=O)O)C(=O)O)C(C)C [Example 26, N^ε26-[(2S)-2-amino-6-[[(2S)-2-amino-6-[[(4S)-4-carboxy-4-[8-[10-(4-carboxyphenoxy)decanoylamino]octanoylamino]butanoyl]amino]hexanoyl]amino]hexanoyl], N^ε37-[(2S)-2-amino-6-[[(2S)-2-amino-6-[[(4S)-4-carboxy-4-[8-[10-(4-carboxyphenoxy)decanoylamino]octanoylamino]butanoyl]amino]hexanoyl]amino]hexanoyl]-[Aib^8,Arg^34,Lys^37]-GLP-1-(7-37)-peptide] |  |  |  |  |  | 106 | 0.38 | 
